Measurements from patent publication US20050152835A1, “Technetium-99M glucarate methods of use for monitoring tissues” (priority 2003, published 2005).

Assays:
[1] = system: MCF7/S tumors; test: Biodistribution in mice bearing MCF7/S tumors; assay type: in vivo, SCID mice
Procedure: (§1) Tumor cell lines used. MCF7/S: Cells are parental, drug (doxorubicin) sensitive, breast carcinoma cells. MCF7/D40: Cells were generated in vitro by successive culturing parental MCF7 cells in slowly increasing concentrations of doxorubicin with a total selection time of 31 months. Twenty-eight SCID mice were studied. MCF7/S or MCF7/D40 tumors were grown for 10-14 days after subcutaneous injection of 1×10^6 cells into the right thigh. Groups of mice with the xenografted tumors included: (MCF7/S group: MIBI: n=9; GLA: n=8) and (MCF7/D40 group: MIBI: n=6; GLA: n=5).
(§2) ^99mTc-GLA or ^99mTc-MIBI (5-8 mCi, 185-296 MBq) was injected via a jugular vein catheter. Dynamic images were acquired for 2 hours. Twenty-four projections were obtained, one from each camera. Each scintillation event within the camera's NaI crystal was registered as the digitized outputs from the camera's four photomultiplier tubes. The four photomultiplier outputs were compared to a 20-bit look-up table derived from a calibration procedure that involved moving a collimated source across the camera face.
Tumors and organs were harvested and counted in a dose calibrator. The percent injected dose per gram (% ID/g) was calculated. Membrane preparations made from MCF7/S and MCF7/D40 tumors were immunoblotted with the mouse monoclonal antibody C219 against Pgp followed by a secondary antibody, which was detected by chemiluminescence. […] No immunodetectable MDR1 Pgp was presented in MCF7/S cells.

[2] = system: MCF7/S tumor xenograft; test: FASTSPECT dynamic imaging and tumor washout kinetics, drug-sensitive xenograft; assay type: in vivo, SCID mice
Procedure: as §1
(§3) The dynamic imaging system SPECT consisted of 24 small modular gamma cameras. Each modular camera consists of a 10 cm×10 cm NaI(Tl) scintillation crystal, 4 square (5 cm×5 cm) Hamamatsu photomultiplier tubes. The system included a cylindrical aperture with twenty four 1-mm diameter pinholes drilled in the aperture. A point source in the center of the field of view is projected simultaneously to the center of each camera. Total magnification is 3.5 in a 3.0 cm×3.2 cm×3.2 cm field of view. The spatial resolution of the system is about 1.0 mm, with a sensitivity of 13.3 cps/μCi.
as §2
(§4) Tumor image reconstruction was performed using 100 iterations of the maximum-likelihood expectation-maximization (ML-EM) algorithm. Using SlicerDicer software, three-dimensional images were computed to provide images in a 33×49×49 voxels format, and generate tomographic transaxial, coronal and sagittal slices with one-pixel thickness (1.0 mm). Regions of interest (ROI) over the tumors were created and applied to the dynamic images for determining time-activity curves. The percent washout rate relative to the peak uptake of the tumors were calculated.

[3] = system: MCF7/D40 tumor xenograft; test: FASTSPECT dynamic imaging and tumor washout kinetics, drug-resistant (Pgp positive) xenograft; assay type: in vivo, SCID mice
Procedure: as §1, §3, §2, §4

[4] = system: plasmocytoma (localized myeloma); test: Scintigraphy of a patient with plasmocytoma of T8; assay type: in vivo, human
Procedure: A patient complaining of invalidation pain in the spine (mid-thorax) for about two months. Peak of monoclonal IgG-k in serum. Bence-Jones protein in urine. Spine CT. lytic lesion of T8, with soft tissue infiltration. […] Uptake was obvious in the early images, 15 and 30 min p.i., late acquisition, 6 hr p.i., made the tracer uptake much more obvious.

[5] = system: infarcted hearts; conditions: isoproterenol-induced myocardial infarction; cited from earlier work
[6] = Table 2, MCF7/S mice, 2 hours after injection
[7] = Table 4 (Example 3), MCF7/S mice

## ^99mTc-glucarate
[1]; MCF7/S tumors, 2 hours after injection
  tumor-to-muscle ratio relative to that for 99mTc-sestamibi (fold higher): 9.4 fold
[1]; [6]
  Biodistribution, blood: 1.13 ± 0.16 % ID/gm
  Biodistribution, heart: 0.64 ± 0.08 % ID/gm
  Biodistribution, kidneys: 22.70 ± 1.38 % ID/gm
  Biodistribution, liver: 2.04 ± 0.37 % ID/gm
  Biodistribution, lung: 1.08 ± 0.10 % ID/gm
  Biodistribution, muscle: 0.27 ± 0.02 % ID/gm
  Biodistribution, tumor: 1.15 ± 0.17 % ID/gm
[1]; [7]
  Biodistribution, blood: 1.19 ± 0.17 % ID/g
  Biodistribution, heart: 0.70 ± 0.09 % ID/g
  Biodistribution, kidneys: 22.59 ± 1.38 % ID/g
  Biodistribution, liver: 2.10 ± 0.35 % ID/g
  Biodistribution, lung: 1.15 ± 0.11 % ID/g
  Biodistribution, muscle: 0.29 ± 0.02 % ID/g
  Biodistribution, tumor: 1.16 ± 0.17 % ID/g
  Tumor/Blood ratio: 1.13 ± 0.23
  Tumor/Muscle ratio: 4.37 ± 0.89
[1]; drug-sensitive tumors (MCF7/S)
  mean tumor-to-muscle ratio: 4.5
[2]
  two-hour fractional washout (% peak activity): 72.8±3.1%
[2]; FASTSPECT
  time after injection at which tumor was first visualized/detected: ≤ 5 min
[2]; FASTSPECT, 120 min acquisition
  time after injection until which tumor stayed visualized/detectable: at least 120 min
[3]
  two-hour fractional washout (% peak activity): 71.9±2.9%
[4]; patient with lytic lesion of T8, posterior view
  scan finding at diagnosis: focally increase tracer uptake in the bone lesion and in soft tissue
[4]; posterior view
  scan finding after about 1 year of stabilization and external radiotherapy: normal physiologic tracer distribution, without areas of focally increased uptake
[5]
  uptake in infarcted hearts relative to normal rats: 6 times
